test system: Trypanosoma cruzi epimastigotes (Tulahuen 2 strain); assay: Anti-Trypanosoma cruzi activity: growth inhibition of epimastigotes (absorbance at 600 nm, day 5); format: cell-based; conditions: T. cruzi epimastigotes, test concentration not given
Procedure: Trypanosoma cruzi epimastigotes (Tulahuen 2 strain) were grown at 28 °C in an axenic milieu (BHI-Tryptose) supplemented with 5% fetal bovine serum (FBS), as previously described. Cells from a 10-day-old culture (stationary phase) were inoculated into 50 mL of fresh culture milieu to give an initial concentration of 1 × 10^6 cells per mL. Cell growth was followed by measuring the absorbance of the culture at 600 nm every day. Before inoculation, the milieu was supplemented with a given amount of the coumarin from a freshly prepared stock solution in DMSO (25 mM). The final concentration of DMSO in the culture medium never exceeded 0.4%, and the control was run in the presence of 0.4% DMSO and in the absence of drugs. […] Nifurtimox (Nfx) was used as the reference trypanocidal drug. The percentage of growth inhibition (PGI) was calculated as follows: PGI (%) = {1 - [(Ap - A0p) / (Ac - A0c)]} × 100, where Ap = […] of the culture containing the studied compound at day 5; […] = […] of the culture containing the studied compound just after addition of the inocula (day 0); Ac = […] of the culture in the absence of the studied compound (control) at day 5; […] = […] in the absence of the studied compound at day 0. […] At day 5, the absorbance of the culture was measured and related to the control.

With `Cc1ccc2oc(=O)cc(CN(C)c3ccc(Cl)cc3)c2c1` [10h] the “GI (%) / percentage of growth inhibition (PGI)” value was less than 59.2%.
For `CCc1ccc2oc(=O)cc(CNc3ccc(OC)cc3)c2c1` [11e], the “GI (%) / percentage of growth inhibition (PGI)” value was less than 52.5%.
In the case of `O=c1cc(CN2CCNCC2)c2cc(Cl)ccc2o1` [9j], the “GI (%) / percentage of growth inhibition (PGI)” value is reported as less than 23.6%.
With `O=c1cc(CN2CCC(c3ccccc3)CC2)c2cc(Cl)ccc2o1` [9n] the “GI (%) / percentage of growth inhibition (PGI)” value was less than 51.5%.
In the case of `CCc1ccc2oc(=O)cc(CNc3ccc(C)cc3)c2c1` [11b], the “GI (%) / percentage of growth inhibition (PGI)” value is reported as less than 39.5%.
With `O=c1cc(CNc2ccc(Cl)cc2)c2cc(Cl)ccc2o1` [9c] the “GI (%) / percentage of growth inhibition (PGI)” value was less than 20.4%.
For `O=c1cc(CN2CCS(=O)(=O)CC2)c2cc(Cl)ccc2o1` [9m], the “GI (%) / percentage of growth inhibition (PGI)” value was less than 59.9%.
With `Cc1ccc2oc(=O)cc(CN3CCC(c4ccccc4)CC3)c2c1` [10n] the “GI (%) / percentage of growth inhibition (PGI)” value was less than 62.7%.
In the case of `Cc1ccc(NCc2cc(=O)oc3ccc(Cl)cc23)cc1` [9b], the “GI (%) / percentage of growth inhibition (PGI)” value is reported as less than 20.7%.
With `CCc1ccc2oc(=O)cc(CNc3cc(C)cc(C)c3)c2c1` [11f] the “GI (%) / percentage of growth inhibition (PGI)” value was less than 44.3%.

In order of falling “GI (%) / percentage of growth inhibition (PGI)” value:
1. CCc1ccc2oc(=O)cc(CNc3ccc(Cl)cc3)c2c1 [11c]  67.6 ± 2.7%
2. CCc1ccc2oc(=O)cc(CN3CCOCC3)c2c1 [11k]  57.6 ± 3.4%
3. COc1ccc(NCc2cc(=O)oc3ccc(C)cc23)cc1 [10e]  53.2 ± 1.3%
4. CCc1ccc2oc(=O)cc(CNc3ccccc3)c2c1 [11a]  35.7 ± 0.7%
5. Cc1cc(C)cc(NCc2cc(=O)oc3ccc(C)cc23)c1 [10f]  32.5 ± 0.9%
6. O=c1cc(CN2CCSCC2)c2cc(Cl)ccc2o1 [9l]  29 ± 0.4%
7. CCc1ccc2oc(=O)cc(CN3CCC(c4ccccc4)CC3)c2c1 [11n]  26.7 ± 4.0%
8. Cc1ccc2oc(=O)cc(CNc3ccc(Cl)cc3)c2c1 [10c]  18.5 ± 1.8%
9. Cc1cc(C)cc(NCc2cc(=O)oc3ccc(Cl)cc23)c1 [9f]  6.1 ± 1.3%
10. O=c1cc(CNc2ccc(Br)cc2)c2cc(Cl)ccc2o1 [9d]  1.9 ± 0.8%

same assay, conditions: Trypanosoma cruzi, TULAHUEN, 120 h, T. cruzi epimastigotes, read-out: IC50

First: CC1CS(=O)(=O)CCN1/N=C/c1ccc([N+](=O)[O-])o1 (stereo not drawn) [Nifurtimox, reference compound]
Second: O=c1cc(CN2CCS(=O)(=O)CC2)c2cc(Cl)ccc2o1 [9m]
The IC50 of the first is lower: 5 ± 1 µM for the first, greater than 25 µM for the second.

First: CN(Cc1cc(=O)oc2ccc(Cl)cc12)c1ccccc1 [9g]
Second: Cc1ccc2oc(=O)cc(CN(C)c3ccc(Cl)cc3)c2c1 [10h]
The IC50 of the first is lower: 14.2 ± 1.9 µM for the first, greater than 25 µM for the second.

`Cc1cc(C)cc(NCc2cc(=O)oc3ccc(C)cc23)c1` [10f] and `Cc1cc(C)cc(NCc2cc(=O)oc3ccc(Cl)cc23)c1` [9f] cannot be ordered by IC50: greater than 100 µM for the first, greater than 100 µM for the second.

`O=c1cc(CN2CCSCC2)c2cc(Cl)ccc2o1` [9l] and `O=c1cc(CN2CCNCC2)c2cc(Cl)ccc2o1` [9j] cannot be ordered by IC50: greater than 100 µM for the first, greater than 31 µM for the second.

`CCc1ccc2oc(=O)cc(CNc3ccccc3)c2c1` [11a] and `CCc1ccc2oc(=O)cc(CNc3ccc(C)cc3)c2c1` [11b] cannot be ordered by IC50: 27.7 ± 1.3 µM for the first, greater than 25 µM for the second.

`CCc1ccc2oc(=O)cc(CNc3ccc(OC)cc3)c2c1` [11e] and `COc1ccc(NCc2cc(=O)oc3ccc(C)cc23)cc1` [10e] cannot be ordered by IC50: greater than 25 µM for the first, greater than 25 µM for the second.

`CCc1ccc2oc(=O)cc(CN3CCOCC3)c2c1` [11k] and `CCc1ccc2oc(=O)cc(CN3CCC(c4ccccc4)CC3)c2c1` [11n] are within 1.5-fold of each other in IC50: 22.7 ± 3.1 µM for the first, 30.3 ± 0.9 µM for the second.

First: O=c1cc(CN2CCC(c3ccccc3)CC2)c2cc(Cl)ccc2o1 [9n]
Second: Cc1ccc2oc(=O)cc(CN3CCC(c4ccccc4)CC3)c2c1 [10n]
The IC50 of the first is higher: greater than 25 µM for the first, 13.2 ± 2.6 µM for the second.

`O=c1cc(CNc2ccc(Cl)cc2)c2cc(Cl)ccc2o1` [9c] and `Cc1ccc2oc(=O)cc(CNc3ccc(Cl)cc3)c2c1` [10c] cannot be ordered by IC50: greater than 100 µM for the first, greater than 100 µM for the second.

`Cc1ccc(NCc2cc(=O)oc3ccc(Cl)cc23)cc1` [9b] and `O=c1cc(CNc2ccc(Br)cc2)c2cc(Cl)ccc2o1` [9d] cannot be ordered by IC50: greater than 100 µM for the first, greater than 100 µM for the second.

First: CCc1ccc2oc(=O)cc(CNc3cc(C)cc(C)c3)c2c1 [11f]
Second: CCc1ccc2oc(=O)cc(CNc3ccc(Cl)cc3)c2c1 [11c]
The IC50 of the first is higher: greater than 25 µM for the first, 11.2 ± 1.7 µM for the second. The second is the more potent here.

test system: not given; assay: not given; conditions: not given

First: CN(Cc1cc(=O)oc2ccc(Cl)cc12)c1ccccc1 [9g]
Second: Cc1ccc2oc(=O)cc(CN(C)c3ccc(Cl)cc3)c2c1 [10h]
The melting point of the first is higher: 200 to 201 °C for the first, 173 to 174 °C for the second.

First: Cc1cc(C)cc(NCc2cc(=O)oc3ccc(C)cc23)c1 [10f]
Second: Cc1cc(C)cc(NCc2cc(=O)oc3ccc(Cl)cc23)c1 [9f]
The melting point of the first is lower: 179 to 180 °C for the first, 192 to 194 °C for the second.

First: O=c1cc(CN2CCSCC2)c2cc(Cl)ccc2o1 [9l]
Second: O=c1cc(CN2CCS(=O)(=O)CC2)c2cc(Cl)ccc2o1 [9m]
The melting point of the first is lower: 152 to 153 °C for the first, 162 to 164 °C for the second.

First: CCc1ccc2oc(=O)cc(CNc3ccccc3)c2c1 [11a]
Second: CCc1ccc2oc(=O)cc(CNc3ccc(C)cc3)c2c1 [11b]
The melting point of the first is lower: 91 to 93 °C for the first, 171 to 172 °C for the second.

Compared with `CCc1ccc2oc(=O)cc(CNc3ccc(OC)cc3)c2c1` [11e], `COc1ccc(NCc2cc(=O)oc3ccc(C)cc23)cc1` [10e] is higher in melting point: 151 to 152 °C for the first, 169 to 170 °C for the second.

Compared with `CCc1ccc2oc(=O)cc(CN3CCOCC3)c2c1` [11k], `CCc1ccc2oc(=O)cc(CN3CCC(c4ccccc4)CC3)c2c1` [11n] is higher in melting point: 110 to 113 °C for the first, 118 to 120 °C for the second.

First: O=c1cc(CN2CCC(c3ccccc3)CC2)c2cc(Cl)ccc2o1 [9n]
Second: Cc1ccc2oc(=O)cc(CN3CCC(c4ccccc4)CC3)c2c1 [10n]
The melting point of the first is higher: 163 to 164 °C for the first, 106 to 107 °C for the second.

First: O=c1cc(CNc2ccc(Cl)cc2)c2cc(Cl)ccc2o1 [9c]
Second: Cc1ccc2oc(=O)cc(CNc3ccc(Cl)cc3)c2c1 [10c]
The melting point of the first is higher: 205 to 207 °C for the first, 180 to 181 °C for the second.

First: Cc1ccc(NCc2cc(=O)oc3ccc(Cl)cc23)cc1 [9b]
Second: O=c1cc(CNc2ccc(Br)cc2)c2cc(Cl)ccc2o1 [9d]
The melting point of the first is lower: 201 °C for the first, 231 to 232 °C for the second.

Compared with `CCc1ccc2oc(=O)cc(CNc3cc(C)cc(C)c3)c2c1` [11f], `CCc1ccc2oc(=O)cc(CNc3ccc(Cl)cc3)c2c1` [11c] is lower in melting point: 176 to 178 °C for the first, 171 to 173 °C for the second.

`O=c1cc(CN2CCNCC2)c2cc(Cl)ccc2o1` [9j] gave a melting point greater than 300 °C.
